Test results as given in ChEMBL document CHEMBL1141237, “Synthesis and activity of N-acyl azacyclic urea HIV-1 protease inhibitors with high potency against multiple drug resistant viral strains” (Bioorg Med Chem Lett, 2005).

Key:
[1] = tested on: Human immunodeficiency virus 1; test: Antiviral activity against HIV1 in the absence of human serum; format: functional, organism-based
[2] = tested on: Human immunodeficiency virus 1; test: Antiviral activity against HIV1 in the presence of 50% human serum; format: functional, organism-based
[3] = tested on: Human immunodeficiency virus; test: Antiviral activity against Lopinavir resistant HIV A17 mutant strain; format: functional, organism-based; conditions: Human immunodeficiency virus 1, A17
[4] = tested on: Human immunodeficiency virus; test: Antiviral activity against indinavir resistant HIV IND-R mutant strain; format: functional, organism-based; conditions: Human immunodeficiency virus 1, IND-R
[5] = biological target: Human immunodeficiency virus type 1 protease (Human immunodeficiency virus 1) (UniProt Q72874); test: Inhibitory activity against HIV1 protease at 1 uM
[6] = biological target: Human immunodeficiency virus type 1 protease (Human immunodeficiency virus 1) (UniProt Q72874); test: Inhibitory activity against HIV1 protease at 0.5 uM
[7] = biological target: Human immunodeficiency virus type 1 protease (Human immunodeficiency virus 1, UniProt Q72874); test: Inhibitory activity against HIV1 protease

| inhibition [5] [%] | Structure (SMILES) | EC50 [1] [nM] | EC50 [2] [nM] | EC50 [3] [nM] | EC50 [4] [nM] | inhibition [6] [%] | IC50 [7] [nM] |
| --- | --- | --- | --- | --- | --- | --- | --- |
|  | CC(C)c1nc(CN(C)C(=O)N[C@H](C(=O)N[C@@H](Cc2ccccc2)C[C@H](O)[C@H](Cc2ccccc2)NC(=O)OCc2cncs2)C(C)C)cs1 [RITONAVIR] | 22 | 483 | 1240 |  |  |  |
|  | Cc1cccc(C)c1OCC(=O)N[C@@H](Cc1ccccc1)[C@@H](O)C[C@H](Cc1ccccc1)NC(=O)[C@H](C(C)C)N1CCCNC1=O [LOPINAVIR] | 16 | 67 | 1060 | 385 |  |  |
| 56 | CC(C)CC(=O)N1C[C@@H](O)[C@@H](Cc2ccccc2)N(Cc2ccc(N)cc2)C(=O)N1Cc1ccc(N)cc1 | 150 |  |  |  |  |  |
|  | COc1cc(CN2C(=O)N(Cc3ccc(O)c(OC)c3)N(C(=O)CCc3cccnc3)C[C@@H](O)[C@H]2Cc2ccccc2)ccc1O | 54 | 353 |  |  | 58 |  |
|  | O=C(CCc1ccccc1)N1C[C@@H](O)[C@@H](Cc2ccccc2)N(Cc2ccccc2)C(=O)N1Cc1ccc2[nH]ncc2c1 | 45 |  | 1070 | 821 | 66 |  |
|  | COc1cc(CN2C(=O)N(Cc3ccc(O)c(OC)c3)N(C(=O)CC3CCCC3)C[C@@H](O)[C@H]2Cc2ccccc2)ccc1O | 3 | 60 | 367 | 132 | 66 |  |
|  | COc1cc(CN2C(=O)N(Cc3ccc(O)c(OC)c3)N(Cc3ccccc3)C[C@@H](O)[C@H]2Cc2ccccc2)ccc1O | 4 | 29 |  |  | 81 |  |
|  | COc1cc(CN2C(=O)N(Cc3ccc(O)c(OC)c3)N(C(=O)CC(C)C)C[C@@H](O)[C@H]2Cc2ccccc2)ccc1O | 9 | 27 | 586 | 94 | 73 |  |
|  | N/C(=N/O)c1cccc(CN2C(=O)N(Cc3ccccc3)N(C(=O)CCc3ccccc3)C[C@@H](O)[C@H]2Cc2ccccc2)c1 | 45 |  | 2020 |  | 73 |  |
|  | Nc1[nH]nc2ccc(CN3C(=O)N(Cc4ccccc4)[C@H](Cc4ccccc4)[C@H](O)CN3C(=O)CCc3ccccc3)cc12 | 50 |  | 897 | 102 | 48 |  |
|  | O=C(CCc1ccccc1)N1C[C@@H](O)[C@@H](Cc2ccccc2)N(Cc2ccc(O)cc2)C(=O)N1Cc1ccc(O)cc1 | 17 |  | 192 | 14 | 76 |  |
|  | COc1cc(CN2C(=O)N(Cc3ccc(O)c(OC)c3)N(C(=O)CCc3ccc(F)cc3)C[C@@H](O)[C@H]2Cc2ccccc2)ccc1O | 4 | 28 | 189 | 164 | 67 |  |
|  | COc1cc(CN2C(=O)N(Cc3ccc(O)c(OC)c3)N(C(=O)CCc3ccncc3)C[C@@H](O)[C@H]2Cc2ccccc2)ccc1O | 212 | 546 |  |  |  | 1.2 |
|  | COc1cc(CN2C(=O)N(Cc3ccc(O)c(OC)c3)N(C(=O)CCc3ccccc3)C[C@@H](O)[C@H]2Cc2ccccc2)ccc1O | 4 | 28 | 102 | 49 | 55 |  |
|  | COc1cc(CN2C(=O)N(Cc3ccc(O)c(OC)c3)N(C(=O)CCc3ccc4c(c3)OCO4)C[C@@H](O)[C@H]2Cc2ccccc2)ccc1O | 4 | 56 | 65 | 54 | 73 |  |
|  | COc1cc(CN2C(=O)N(Cc3ccc(O)c(OC)c3)N(C(=O)CCc3ccc(O)cc3)C[C@@H](O)[C@H]2Cc2ccccc2)ccc1O | 61 | 165 |  |  | 73 |  |
|  | CC(C)CC(=O)N1C[C@@H](O)[C@@H](Cc2ccccc2)N(Cc2cccc(N)c2)C(=O)N1Cc1cccc(N)c1 | 37 |  | 2070 |  | 66 |  |

| inhibition [5] [%] | Structure (SMILES) | EC50 [1] [nM] | EC50 [2] [nM] | EC50 [3] [nM] | EC50 [4] [nM] | inhibition [6] [%] | IC50 [7] [nM] |
| --- | --- | --- | --- | --- | --- | --- | --- |
|  | Nc1cccc(CN2C(=O)N(Cc3ccc4[nH]ncc4c3)N(C(=O)CCc3ccccc3)C[C@@H](O)[C@H]2Cc2ccccc2)c1 | 13 |  | 98 | 23 | 74 |  |
|  | COc1cc(CN2C(=O)N(Cc3ccc(N)c(OC)c3)N(C(=O)CCc3ccccc3)C[C@@H](O)[C@H]2Cc2ccccc2)ccc1N | 53 |  | 464 | 504 | 88 |  |
|  | COc1cc(CN2C(=O)N(Cc3ccc(O)c(OC)c3)N(C(=O)CCCN3CCOCC3)C[C@@H](O)[C@H]2Cc2ccccc2)ccc1O | 308 | 576 |  |  |  | 3.8 |
|  | COc1cc(CN2C(=O)N(Cc3ccc(O)c(OC)c3)N(C(=O)CCCC3CCCO3)C[C@@H](O)[C@H]2Cc2ccccc2)ccc1O (some centres not stated) | 9 | 77 |  |  | 76 |  |
|  | COc1cc(CN2C(=O)N(Cc3ccc(O)c(OC)c3)N(C(=O)CCCc3cccs3)C[C@@H](O)[C@H]2Cc2ccccc2)ccc1O | 4 | 56 |  |  | 64 |  |
|  | COc1cc(CN2C(=O)N(Cc3ccc(O)c(OC)c3)N(C(=O)CCCc3ccccc3)C[C@@H](O)[C@H]2Cc2ccccc2)ccc1O | 5 | 27 |  |  | 75 |  |
|  | COc1ccc(CCC(=O)N2C[C@@H](O)[C@@H](Cc3ccccc3)N(Cc3ccc(O)c(OC)c3)C(=O)N2Cc2ccc(O)c(OC)c2)cc1 | 6 | 48 | 133 | 88 | 67 |  |
|  | COc1cc(CN2C(=O)N(Cc3ccc(O)c(OC)c3)N(C(=O)CCCCN3CCOCC3)C[C@@H](O)[C@H]2Cc2ccccc2)ccc1O | 86 | 480 | > 10000 | 1040 |  | 2.1 |
|  | COc1cc(CN2C(=O)N(Cc3ccc(O)c(OC)c3)N(C(=O)CN3CCNCC3)C[C@@H](O)[C@H]2Cc2ccccc2)ccc1O | 1490 | 3220 |  |  |  | 6.1 |
|  | COc1cc(CN2C(=O)N(Cc3ccc(O)c(OC)c3)N(C(=O)COc3ccccc3)C[C@@H](O)[C@H]2Cc2ccccc2)ccc1O | 929 | 5150 |  |  | 53 |  |
|  | COc1cc(CN2C(=O)N(Cc3ccc(O)c(OC)c3)N(C(=O)CCc3ccoc3)C[C@@H](O)[C@H]2Cc2ccccc2)ccc1O | 9 | 18 | 562 | 227 | 68 |  |
|  | N/C(=N/O)c1cccc(CN2C(=O)N(Cc3ccc4[nH]ncc4c3)N(C(=O)CCc3ccccc3)C[C@@H](O)[C@H]2Cc2ccccc2)c1 | 74 |  | 84 | 58 | 90 |  |
|  | CC(C)CC(=O)N1C[C@@H](O)[C@@H](Cc2ccccc2)N(Cc2ccc(O)cc2)C(=O)N1Cc1ccc(O)cc1 | 30 |  | 312 | 171 | 65 |  |
|  | COc1cc(CN2C(=O)N(Cc3ccc(O)c(OC)c3)N(C(=O)CCc3ccc(OC)c(OC)c3)C[C@@H](O)[C@H]2Cc2ccccc2)ccc1O | 15 | 47 |  |  | 72 |  |
|  | COc1cc(CN2C(=O)N(Cc3ccc(O)c(OC)c3)N(C(=O)CCc3ccco3)C[C@@H](O)[C@H]2Cc2ccccc2)ccc1O | 3 | 16 | 455 | 81 | 73 |  |
|  | COc1cccc(CCC(=O)N2C[C@@H](O)[C@@H](Cc3ccccc3)N(Cc3ccc(O)c(OC)c3)C(=O)N2Cc2ccc(O)c(OC)c2)c1 | 4 | 62 |  |  | 67 |  |
|  | COc1cc(CN2C(=O)N(Cc3ccc(O)c(OC)c3)N(C(=O)CN3CCCC3)C[C@@H](O)[C@H]2Cc2ccccc2)ccc1O | 572 | 490 |  |  |  | 7.9 |
